{
  "source": "patent US20040097521A1",
  "about": "“Clinical treatment” (priority 2000, published 2004)",
  "key": {"[1]": {"tested_on": "human colon carcinoma cells (CaCo2)", "assay": "Effects of NAC and di-NAC on human colon carcinoma cells (CaCo2) in culture", "assay_type": "cell-based", "conditions": "for local concentration for maximum inhibition of proliferation (no growth) / time to differentiate when treated: CaCo2; for toxic side effects: CaCo2, summary", "experimental": "An established cell line of human colon carcinoma cells was used (CaCo2). CaCo2 is a proliferating human colon carcinoma cell line displaying irregular morphology, forming multiple cell layers with scarce microvillous structures and large intercellular spaces.\nThe CaCo2 cells were treated with various millimolar concentrations of NAC, ranging from 2 to 10 mM. NAC was added to the culture medium 24 hours after inoculation of the cells. After 3 days of culture in the presence of NAC the cells were analyzed for the following marker parameters: […]"}, "[2]": {"tested_on": "primary normal human epidermal keratinocytes (NHEK)", "assay": "Effects of NAC or di-NAC on primary normal human epidermal keratinocytes (NHEK) in culture", "assay_type": "cell-based", "conditions": "for cell-cell junctions / concentration of E-cadherins / tubulin expression: 2 mM; for cell-cell junctions / concentration of E-cadherins / tubulin expression / concentration for complete suppression of cell proliferation: 3 days; for concentration for complete suppression of cell proliferation: 1 to 10 mM; for toxic side effects: summary", "text": "Primary normal human epidermal keratinocytes (NHEK) obtained from Clonetics Inc. (San Diego, Calif., U.S.A.) were cultivated in the medium provided by the supplier. These cells have a limited life-span of about 15 days in culture and undergo a normal differentiation process of epidermal keratinocytes with a final enucleation and exfoliation. After inoculation the cells acquire a polygonal morphology cell-cell adhesions. The cytoskeleton morphology is quite organized, mainly at the cell borders.\nNHEK cells were treated with various millimolar concentrations of NAC or di-NAC, ranging from 1 to 10 mM. The substances were added to the culture medium 24 hours after inoculation. After 3 days of culture in the presence of 2 mM of NAC or di-NAC the cells were analysed for the following marker parameters: […]"}, "[3]": {"tested_on": "localized psoriatic plaques", "assay": "Local treatment of psoriatic plaques in volunteers with NAC or di-NAC cream", "assay_type": "in vivo, human", "conditions": "base-cream 10-20 weight %; for outcome of prolonged treatment: weeks to a few months; for most commonly reported side effect: with occlusive bandage", "text": "Five informed volunteers displaying localized psoriatic plaques were locally treated with a base-cream containing 10-20 weight % of NAC or di-NAC. The cream had been applied every night for variable periods—from weeks to a few months—with or without occlusive bandage. The skin of the patient was normally washed between each daily treatment. No other drugs were contemporarily used."}, "[4]": {"tested_on": "1,2-dimethylhydrazine (DMH)-induced large intestinal tumors", "assay": "DMH-induced large intestinal tumors in rats", "assay_type": "in vivo, male Sprague-Dawley rats", "text": "The effects of daily NAC treatment or intermittent NAC treatments on intestinal tumors, which had been induced by treating male Sprague-Dawley rats with 1,2-dimethylhydrazine (DMH), were investigated."}, "[5]": {"tested_on": "DHD/K12-PROb colon adenocarcinoma", "assay": "Colon adenocarcinoma (DHD/K12-PROb cells s.c.) in BD-IX rats", "assay_type": "in vivo", "conditions": "weekly injection", "experimental": "In this experimental model BD-IX rats were divided into four groups: Groups G1 and G2, designated “cancer groups”, were used to study the effects of NAC on the progression of colon cancer, and Groups G3 and G4, designated “toxicity groups”, were used to study the effects of the treatment on metabolic processes and the parenchyma. DHD/K12-PROb cells were injected subcutaneously into the chest of Group G1 and G2 animals. From 1 to 13 weeks after inoculation the animals in Groups G2 and G4 received a weekly injection of NAC. The animals in Groups G1 and G3 received no treatment."}, "protein kinase C (PKC)": {"tested_on": "protein kinase C (PKC)", "assay": "AOM-induced rat colon cancer model, PKC activity", "assay_type": "in vivo", "conditions": "colonic mucosa and tumors, P<0.01", "experimental": "(§1) Since the efficacy of NAC against colon cancer is significant, the mechanisms of inhibiting colon carcinogenesis were explored by investigating the activities of protein kinase C (PKC), tyrosine protein kinase (TPK), and diacylglycerol kinase (DGK) as well as the 8-isoprostane levels in colonic mucosa and tumor tissues in an azoxy-methane (AOM)-induced rat colon cancer model.\n(§2) At seven weeks of age corresponding groups of rats were injected s.c. with azoxymethane (AOM; 15 mg/kg body weight, once weekly for 2 weeks), and different experiments were continued until 38 weeks after the second AOM treatment. Then, the rats were then sacrificed and colonic mucosal as well as tumor samples were evaluated for PKC, TPK, DGK, and 8-isoprostane levels."}, "[6]": {"tested_on": "tyrosine protein kinase (TPK)", "assay": "AOM-induced rat colon cancer model, TPK activity", "assay_type": "in vivo", "conditions": "colonic mucosal and tumor, P<0.01", "experimental": "as §1, §2"}, "[7]": {"tested_on": "diacylglycerol kinase (DGK)", "assay": "AOM-induced rat colon cancer model, DGK activity", "assay_type": "in vivo", "conditions": "P<0.01", "experimental": "as §1, §2"}, "8-isoprostane": {"tested_on": "8-isoprostane", "assay": "AOM-induced rat colon cancer model, 8-isoprostane levels", "assay_type": "in vivo", "conditions": "colonic tumors, versus control", "experimental": "as §1, §2"}, "[8]": {"tested_on": "4NQO-induced rat malignant oral keratinocytes", "assay": "4NQO-induced rat malignant oral keratinocytes transplanted orthotopically to athymic mice", "assay_type": "in vivo", "conditions": "for potential to metastasise: differentiated rat malignant oral keratinocytes, versus untreated", "text": "The effects of NAC or di-NAC on the metastatic capacity of clonal populations of 4NQO-induced rat malignant oral keratinocytes were examined after orthotopic transplantation to athymic mice. Polygonal cells and spindle cells formed well-differentiated squamous cell carcinomas (keratin positive and vimentin negative) and undifferentiated spindle cell tumors (keratin negative and vimentin positive), respectively, in all animals at the site of inoculation (floor of mouth)."}, "[9]": {"conditions": "cited from earlier work"}, "myeloma type tumor cells": {"tested_on": "myeloma type tumor cells", "conditions": "in vitro; cited from earlier work"}, "[10]": {"tested_on": "human colon carcinoma cells (CaCo2)", "assay": "Effects of NAC and di-NAC on human colon carcinoma cells (CaCo2) in culture", "assay_type": "cell-based", "conditions": "CaCo2, di-NAC treatment"}, "arteriosclerosis": {"tested_on": "arteriosclerosis", "conditions": "WHHL rabbits; cited from earlier work"}},
  "data": [
    {"smiles": "CC(=O)N[C@@H](CS)C(=O)O", "note": "[NAC, N-acetyl-L-cysteine]", "values": [
      {"measurement": "local concentration for maximum inhibition of proliferation (no growth)", "setting": "[1]", "value": "about 1 mM"},
      {"measurement": "time to differentiate when treated", "setting": "[1]", "value": 3, "unit": "days"},
      {"measurement": "apoptosis / necrosis", "setting": "[1]; CaCo2, 2 to 10 mM, 3 days", "value": "Neither apoptosis nor necrosis was observed"},
      {"measurement": "concentration of maximum effect on decrease of cell proliferation", "setting": "[1]; CaCo2, 2 to 10 mM, 3 days of culture", "value": 2, "unit": "mM"},
      {"measurement": "cell-cell adhesion structures", "setting": "[1]; CaCo2, 3 days of culture", "value": "increased number"},
      {"measurement": "tubulin expression", "setting": "[1]; CaCo2, 3 days of culture", "value": "strongly reduced"},
      {"measurement": "cell viability", "setting": "[1]; CaCo2, all doses added (2 to 10 mM), 3 days", "value": "unaffected"},
      {"measurement": "toxic side effects", "setting": "[1]", "value": "without any detectable toxic side effects"},
      {"measurement": "concentration at which reversion of colon cancer cells is induced", "setting": "[1]", "value": 1, "unit": "mM"},
      {"measurement": "concentration at which colon carcinoma completely differentiate", "setting": "[1]", "value": 5, "unit": "mM"},
      {"measurement": "local concentration for maximum inhibition of proliferation (no growth)", "setting": "[2]; NHEK", "value": "about 1 mM"},
      {"measurement": "time to differentiate when treated", "setting": "[2]; NHEK", "value": 3, "unit": "days"},
      {"measurement": "cell-cell junctions", "setting": "[2]; NHEK", "value": "increased number"},
      {"measurement": "concentration of E-cadherins", "setting": "[2]; NHEK", "value": "increased"},
      {"measurement": "tubulin expression", "setting": "[2]; NHEK", "value": "reduced"},
      {"measurement": "concentration for complete suppression of cell proliferation", "setting": "[2]; NHEK", "value": 2, "unit": "mM"},
      {"measurement": "cell viability", "setting": "[2]; NHEK, all doses, up to 10 mM", "value": "unaffected"},
      {"measurement": "toxic side effects", "setting": "[2]; NHEK", "value": "no toxic side effects"},
      {"measurement": "apoptosis / necrosis", "setting": "[2]; NHEK, up to 10 mM", "value": "Neither apoptosis nor necrosis was observed"},
      {"measurement": "concentration at which keratinocytes completely differentiate", "setting": "[2]", "value": 1, "unit": "mM"},
      {"measurement": "minimum dose required to accelerate differentiation of normal keratinocytes", "setting": "[2]", "value": 0.5, "unit": "mM"},
      {"measurement": "outcome of prolonged treatment", "setting": "[3]", "value": "complete remission of all symptoms"},
      {"measurement": "most commonly reported side effect", "setting": "[3]", "value": "local hitching"},
      {"measurement": "large intestinal tumor mass index", "setting": "[4]; NAC-treated group, p<0.001 vs control", "value": 0.04},
      {"measurement": "adenocarcinomas in the colons", "setting": "[4]; daily NAC treatment", "value": "no adenocarcinomas were present"},
      {"measurement": "large intestinal tumor burden", "setting": "[4]; intermittent NAC treatment, p=0.001 vs control", "value": 1, "unit": "tumors/treatment group"},
      {"measurement": "tumor growth", "setting": "[5]; female and male rats", "value": "significantly slower"},
      {"measurement": "life span", "setting": "[5]; 1 to 13 weeks after inoculation", "value": "extended life span"},
      {"measurement": "Ca2+ dependent and independent PKC activities", "setting": "protein kinase C (PKC)", "value": "significantly inhibited"},
      {"measurement": "TPK activities", "setting": "[6]", "value": "significantly suppressed"},
      {"measurement": "DGK activity", "setting": "[7]", "value": "significant increased"},
      {"measurement": "8-isoprostane levels", "setting": "8-isoprostane", "value": "lower levels"},
      {"measurement": "potential to metastasise", "setting": "[8]", "value": "decreased potential to metastasise"},
      {"measurement": "inhibition of clones of polygonal cells", "setting": "[8]; exogenous NAC", "value": "markedly inhibited"},
      {"measurement": "inhibition of spindle cells", "setting": "[8]; exogenous NAC", "value": "inhibited"},
      {"measurement": "side effects when used clinically", "setting": "[9]; even after high doses, such as 10 g/day", "value": "no significant side effects"},
      {"measurement": "clearance", "setting": "[9]; in vivo", "value": "relatively rapid"},
      {"measurement": "side effects after intravenous injection", "setting": "[9]; paracetamol poisoning, 10 grams i.v. in 15 minutes, then half of the dose in 30 min", "value": "without any reported side effects"},
      {"measurement": "activity against myeloma type tumor cells", "setting": "myeloma type tumor cells", "value": "tumor proliferation inhibitory activity"}
    ]},
    {"smiles": "CC(=O)N[C@@H](CSSC[C@H](NC(C)=O)C(=O)O)C(=O)O", "note": "[di-NAC, N,N′-diacetyl-L-cystine]", "values": [
      {"measurement": "local concentration for maximum inhibition of proliferation (no growth)", "setting": "[1]", "value": "about 1 mM"},
      {"measurement": "time to differentiate when treated", "setting": "[1]", "value": 3, "unit": "days"},
      {"measurement": "toxic side effects", "setting": "[1]", "value": "without any detectable toxic side effects"},
      {"measurement": "concentration at which reversion of colon cancer cells is induced", "setting": "[1]", "value": 1, "unit": "mM"},
      {"measurement": "concentration at which colon carcinoma completely differentiate", "setting": "[1]", "value": 5, "unit": "mM"},
      {"measurement": "local concentration for maximum inhibition of proliferation (no growth)", "setting": "[2]; NHEK", "value": "about 1 mM"},
      {"measurement": "time to differentiate when treated", "setting": "[2]; NHEK", "value": 3, "unit": "days"},
      {"measurement": "cell-cell junctions", "setting": "[2]; NHEK", "value": "increased number"},
      {"measurement": "concentration of E-cadherins", "setting": "[2]; NHEK", "value": "increased"},
      {"measurement": "tubulin expression", "setting": "[2]; NHEK", "value": "reduced"},
      {"measurement": "concentration for complete suppression of cell proliferation", "setting": "[2]; NHEK", "value": 2, "unit": "mM"},
      {"measurement": "toxic side effects", "setting": "[2]; NHEK", "value": "no toxic side effects"},
      {"measurement": "concentration at which keratinocytes completely differentiate", "setting": "[2]", "value": 1, "unit": "mM"},
      {"measurement": "minimum dose required to accelerate differentiation of normal keratinocytes", "setting": "[2]", "value": 0.5, "unit": "mM"},
      {"measurement": "outcome of prolonged treatment", "setting": "[3]", "value": "complete remission of all symptoms"},
      {"measurement": "most commonly reported side effect", "setting": "[3]", "value": "local hitching"},
      {"measurement": "potential to metastasise", "setting": "[8]", "value": "decreased potential to metastasise"},
      {"measurement": "E-cadherin expression", "setting": "[10]", "value": "increased"},
      {"measurement": "proliferation", "setting": "[10]", "value": "decreased proliferation"},
      {"measurement": "effect on arteriosclerosis", "setting": "arteriosclerosis", "value": "inhibits arteriosclerosis"}
    ]}
  ]
}
